System: fibroblasts from CF subjects, heterozygote carriers and controls
Assay: O2 consumption of skin fibroblast suspensions measured polarographically, with electron transport inhibitors
Type: cell-based, human
Description: Skin fibroblast strains from the upper arm were obtained from subjects with CF and age- and sex-matched controls and from obligate CF heterozygote parents and their age- and sex-matched controls. Cells were stored in liquid nitrogen at early passages and thawed for use as needed. In all but a few experiments, strains were passage matched. For O2 consumption studies and mitochondrial preparations, monolayers were grown in 285×115 mm roller bottles (Bellco Glass, N.J.). For NADH dehydrogenase studies, monolayers were grown in 75 cm^2 flasks (Falcon, Oxnard, Ca.). Monolayers were cultured in Eagle's minimal essential medium with Earle's salts plus L-glutamine (K. C. Biologicals, Inc., Lenexa, Kans.), supplemented with 10 percent fetal calf serum, 100 units per ml of penicillin, and 100 μg/ml of streptomycin (Gibco, Grand Island, N.Y.). The cultures were maintained at 37° in 95 percent air-5 percent CO2 atmosphere. Cells were harvested with trypsin-EDTA [(1:250 tryspin+0.2 g EDTA/1 (Gibco, Grand Island, N.Y.)].
Confluent monolayers of fibroblasts as prepared in Example 1 were harvested by trypsin-EDTA digestion. Cells were pelleted by centrifugation at 600×g for 5 min, washed with 10 ml of cold Hank's Balanced Salt Solution (HBSS) containing 0.1 mg/ml bovine serum albumin and 10 mg/ml dextrose, pH 7.4. 100 μl aliquots of the washed cell suspension were taken for cell counting using a ZBI Coulter Counter. The washed cells were again pelleted by centrifugation and resuspended in 1 ml cold HBSS. O2 consumption was measured polarographically on a cell suspension of 1×10^7 cells in a final volume of 3 ml by an O2 electrode system (Clark model 53, Yellow Springs Instruments, Ohio). […] In these experiments the baseline O2 uptake rate was determined for each cell line. Prior to removing the cells from the electrode chamber, 100 μl of 100 μ M rotenone were added and O2 consumption recorded. […]
The change in O2 consumption rate caused by rotenone was recorded as percent of initial O2 consumption rate. Each point represents percent inhibition measured on one cell strain.

SMILES: C=C(C)[C@H]1Cc2c(ccc3c2O[C@@H]2COc4cc(OC)c(OC)cc4[C@@H]2C3=O)O1 [rotenone]
- Inhibition of O2 consumption (change in O2 consumption rate as percent of initial rate) (100 μl of 100 μM rotenone added to 1×10^7 cells in 3 ml, all cell strains tested): inhibited O2 consumption in all cell strains tested
- Relative inhibitory effect on O2 consumption among genotypes (100 μl of 100 μM rotenone, CF, HZ (carrier) and control fibroblast strains, FIG. 5): CF>HZ>controls
- O2 consumption after treatment with the inhibitor, compared between genotypes (cells treated with rotenone, CF subjects, carriers, controls): cells from cystic fibrosis subjects and carriers consume equal amounts of oxygen, as do controls
